Reference: patent US20230159527A1, “COMPOUNDS AS BCL-2 INHIBITORS” (Fochon Pharmaceuticals, Ltd., priority 2020, published 2023)

tested on: Toledo cells; assay: Cell proliferation assay, Toledo cells (MTS, 72 h); format: cell-based; conditions: Homo sapiens, Toledo cells, MTS, read-out: Toledo IC50
Method: MTS testing kit was purchased from Promega (Madison, Wis., USA). The RPMI-1640, Fetal bovine serum and Penicillin-Streptomycin were purchased from BI (Biological Industries, Beit Haemek, Israel). Dimethyl sulfoxide (DMSO) was purchased from Sigma (St. Louis, Mo., USA). Toledo (ATCC catalog #: CRL-2631) cells were cultured in RPMI-1640 supplemented with Penicillin-Streptomycin and 10% FBS.
To investigate whether a compound is able to inhibit the activity of BCL-2 in cells, a mechanism-based assay using Toledo lines was developed. In this assay, the inhibition of BCL-2 was reflected by the inhibition of cell proliferation of Toledo cells. Cells were plated into 96-well plates at the optimized cell density of 30000 cells/well. Plates were incubated at 37° C., with 5% CO2 for 4h. Compounds were serially diluted and added to the plates with the final concentrations of 10000, 3333.3, 1111.1, 370.4, 123.5, 41.2, 13.7, 4.6 and 1.5 nM. Plates were incubated at 37° C., with 5% CO2 for 72 h. 20 μl MTS was added into each well and the plates were incubated at 37° C., with 5% CO2 for exactly 2 h. The absorbance was measured by a microplate reader at 490 nm. IC50 was calculated using GraphPad Prism 5.0 software.

**Q.** Which IC50 does the source give for `Cc1nc2[nH]ccc2cc1Oc1cc(N2CCC3(CC2)CC(N2CCC[C@H]2c2ccccc2C(C)C)C3)ccc1C(=O)NS(=O)(=O)c1cc2c(c([N+](=O)[O-])c1)N[C@@H]([C@H]1CC[C@](C)(O)CC1)CO2` (single isomer, unassigned) [Example D-39, N-(((S)-3-((1r,4S)-4-hydroxy-4-methylcyclohexyl)-5-nitro-3,4-dihydro-2H-benzo[b][1,4]oxazin-7-yl)sulfonyl)-4-(2-((R or S)-2-(2-isopropylphenyl)pyrrolidin-1-yl)-7-azaspiro[3.5]nonan-7-yl)-2-((6-methyl-1H-pyrrolo[2,3-b]pyridin-5-yl)oxy)benzamide] here?
**A.** 1 nM

**Q.** Which IC50 does the source give for `CC(C)c1ccccc1[C@@H]1CCCN1C1CC2(CCN(c3ccc(C(=O)NS(=O)(=O)c4cc5c(c([N+](=O)[O-])c4)N[C@@H](C[C@H]4CC[C@](C)(O)CC4)CO5)c(Oc4cnc5[nH]cc(F)c5c4)c3)CC2)C1` (single isomer, unassigned) [Example D-19, 2-((3-fluoro-1H-pyrrolo[2,3-b]pyridin-5-yl)oxy)-N-(((S)-3-(((1r,4S)-4-hydroxy-4-methylcyclohexyl)methyl)-5-nitro-3,4-dihydro-2H-benzo[b][1,4]oxazin-7-yl)sulfonyl)-4-(2-((R or S)-2-(2-isopropylphenyl)pyrrolidin-1-yl)-7-azaspiro[3.5]nonan-7-yl)benzamide] here?
**A.** 9 nM

**Q.** Which IC50 does the source give for `CC(C)c1ccccc1[C@@H]1CCC[C@@H]1N1CC2(CCN(c3ccc(C(=O)NS(=O)(=O)c4cc5c(c([N+](=O)[O-])c4)N[C@@H]([C@H]4CC[C@](C)(O)CC4)CO5)c(Oc4cnc5[nH]cc(F)c5c4)c3)CC2)C1=O` (single isomer, unassigned) [Example D-248, 2-((3-fluoro-1H-pyrrolo[2,3-b]pyridin-5-yl)oxy)-N-(((S)-3-((1r,4S)-4-hydroxy-4-methylcyclohexyl)-5-nitro-3,4-dihydro-2H-benzo[b] [1,4]oxazin-7-yl)sulfonyl)-4-(2-((1S,2S or 1R,2R)-2-(2-isopropylphenyl)cyclopentyl)-1-oxo-2,7-diazaspiro [3.5]nonan-7-yl)benzamide] here?
**A.** 1 nM

**Q.** Which IC50 does the source give for `COCCOc1nc2[nH]ccc2cc1Oc1cc(N2CCC3(CC2)CC(N2CCC[C@H]2c2ccccc2C(C)C)C3)ccc1C(=O)NS(=O)(=O)c1cc2c(c([N+](=O)[O-])c1)N[C@@H](C[C@H]1CC[C@](C)(O)CC1)CO2` (single isomer, unassigned) [Example D-21, N-(((S)-3-(((1r,4S)-4-hydroxy-4-methylcyclohexyl)methyl)-5-nitro-3,4-dihydro-2H-benzo[b][1,4]oxazin-7-yl)sulfonyl)-4-(2-((R or S)-2-(2-isopropylphenyl)pyrrolidin-1-yl)-7-azaspiro[3.5]nonan-7-yl)-2-((6-(2-methoxyethoxy)-1H-pyrrolo[2,3-b]pyridin-5-yl)oxy) benzamide] here?
**A.** 1 nM

**Q.** `CC(C)c1ccccc1[C@H]1CCCN1C1CC2(CCN(c3ccc(C(=O)NS(=O)(=O)c4cc5c(c([N+](=O)[O-])c4)NC([C@@H]4COCCO4)CO5)c(Oc4cnc5[nH]cc(F)c5c4)c3)CC2)C1` (single isomer, unassigned) [Example D-49a, N-(((R or S)-3-((R)-1,4-dioxan-2-yl)-5-nitro-3,4-dihydro-2H-benzo[b][1,4]oxazin-7-yl)sulfonyl)-2-((3-fluoro-1H-pyrrolo[2,3-b]pyridin-5-yl)oxy)-4-(2-((R or S)-2-(2-isopropylphenyl)pyrrolidin-1-yl)-7-azaspiro[3.5]nonan-7-yl)benzamide] was tested. Which IC50 did it give?
**A.** 1 nM

**Q.** `COc1nc2[nH]ccc2cc1Oc1cc(N2CCC3(CC2)CN([C@H]2CCC[C@H]2c2ccccc2C(C)C)C3)ccc1C(=O)NS(=O)(=O)c1cnc(NC[C@H]2CC[C@](C)(O)CC2)c([N+](=O)[O-])c1` (single isomer, unassigned) [Example A-160, N-((6-(((1r,4r)-4-hydroxy-4-methyl-cyclohexyl)methyl)amino)-5-nitro-pyridin-3-yl)sulfonyl)-4-(2-((1S,2S or 1R,2R)-2-(2-isopropylphenyl)cyclo-pentyl)-2,7-diazaspiro[3.5]nonan-7-yl)-2-((6-methoxy-1H-pyrrolo[2,3-b]pyridin-5-yl)oxy)benzamide] was tested. Which IC50 did it give?
**A.** 1 nM

**Q.** For `CC(C)c1ccccc1[C@@H]1CCCN1C1CC2(CCN(c3ccc(C(=O)NS(=O)(=O)c4cc5c(c([N+](=O)[O-])c4)N[C@@H](C4CCOCC4)CO5)c(Oc4cnc5[nH]cc(F)c5c4)c3)CC2)C1` (single isomer, unassigned) [Example D-48, 2-((3-fluoro-1H-pyrrolo[2,3-b]pyridin-5-yl)oxy)-4-(2-((R or S)-2-(2-isopropylphenyl)pyrrolidin-1-yl)-7-azaspiro[3.5]nonan-7-yl)-N-(((S)-5-nitro-3-(tetrahydro-2H-pyran-4-yl)-3,4-dihydro-2H-benzo[b][1,4]oxazin-7-yl)sulfonyl) benzamide], which IC50 is on record?
**A.** 1 nM

**Q.** For `CC(C)c1ccccc1[C@@H]1CCCN1C1CC2(CCN(c3ccc(C(=O)NS(=O)(=O)c4cc5c(c([N+](=O)[O-])c4)N[C@@H]([C@H]4CC[C@](C)(O)CC4)CO5)c(Oc4cc5cc[nH]c5nc4N4CCC4)c3)CC2)C1` (single isomer, unassigned) [Example D-183, 2-((6-(azetidin-1-yl)-1H-pyrrolo [2,3-b]pyridin-5-yl)oxy)-N-(((S)-3-((1r,4S)-4-hydroxy-4-methylcyclohexyl)-5-nitro-3,4-dihydro-2H-benzo[b][1,4]oxazin-7-yl)sulfonyl)-4-(2-((R or S)-2-(2-isopropylphenyl)pyrrolidin-1-yl)-7-azaspiro[3.5]nonan-7-yl)benzamide], which IC50 is on record?
**A.** 1 nM

**Q.** With `CC(C)c1ccccc1[C@@H]1CC[C@@H](CO)N1C1CC2(CCN(c3ccc(C(=O)NS(=O)(=O)c4cc5c(c([N+](=O)[O-])c4)N[C@@H]([C@H]4CC[C@](C)(O)CC4)CO5)c(Oc4cnc5[nH]cc(F)c5c4)c3)CC2)C1` [Example D-253, 2-((3-fluoro-1H-pyrrolo[2,3-b]pyridin-5-yl)oxy)-N-(((S)-3-((1r,4S)-4-hydroxy-4-methylcyclohexyl)-5-nitro-3,4-dihydro-2H-benzo[b] [1,4]oxazin-7-yl)sulfonyl)-4-(2-((2S,5S)-2-(hydroxymethyl)-5-(2-isopropylphenyl)pyrrolidin-1-yl)-7-azaspiro[3.5]nonan-7-yl)benzamide] as the molecule, how does the IC50 read?
**A.** 1 nM

**Q.** `CC(C)c1ccccc1[C@@H]1CCCN1C1CC2(CCN(c3ccc(C(=O)NS(=O)(=O)c4cc5c(c([N+](=O)[O-])c4)N[C@@H]([C@H]4CC[C@](C)(O)CC4)CO5)c(Oc4cc5cc[nH]c5nc4OC(F)F)c3)CC2)C1` (single isomer, unassigned) [Example D-11, 2-((6-(difluoromethoxy)-1H-pyrrolo [2,3-b]pyridin-5-yl)oxy)-N-(((S)-3-((1r,4S)-4-hydroxy-4-methylcyclohexyl)-5-nitro-3,4-dihydro-2H-benzo[b][1,4]oxazin-7-yl)sulfonyl)-4-(2-((R or S)-2-(2-isopropylphenyl)pyrrolidin-1-yl)-7-azaspiro[3.5]nonan-7-yl)benzamide] was tested. Which IC50 did it give?
**A.** 1 nM

**Q.** For `CO[C@H]1CC[C@H]([C@@H]2COc3cc(S(=O)(=O)NC(=O)c4ccc(N5CCC6(CC5)CC(N5CCC[C@H]5c5ccccc5C(C)C)C6)cc4Oc4cnc5[nH]cc(F)c5c4)cc([N+](=O)[O-])c3N2)CC1` (single isomer, unassigned) [Example D-45, 2-((3-fluoro-1H-pyrrolo[2,3-b]pyridin-5-yl)oxy)-4-(2-((R or S)-2-(2-isopropylphenyl)pyrrolidin-1-yl)-7-azaspiro[3.5]nonan-7-yl)-N-(((R)-3-((1r,4S)-4-methoxycyclohexyl)-5-nitro-3,4-dihydro-2H-benzo[b][1,4]oxazin-7-yl)sulfonyl)benzamide], which IC50 is on record?
**A.** 1 nM

**Q.** For `CC(C)c1ccccc1[C@@H]1CCCN1C1CC2(CCN(c3ccc(C(=O)NS(=O)(=O)c4cc5c(c([N+](=O)[O-])c4)N[C@@H]([C@H]4CC[C@](C)(O)CC4)CO5)c(Oc4cc5cc[nH]c5nc4OCC(F)(F)F)c3)CC2)C1` (single isomer, unassigned) [Example D-58, N-(((S)-3-((1r,4S)-4-hydroxy-4-methylcyclohexyl)-5-nitro-3,4-dihydro-2H-benzo[b][1,4]oxazin-7-yl)sulfonyl)-4-(2-((R or S)-2-(2-isopropylphenyl)pyrrolidin-1-yl)-7-azaspiro[3.5]nonan-7-yl)-2-((6-(2,2,2-trifluoroethoxy)-1H-pyrrolo[2,3-b]pyridin-5-yl)oxy) benzamide], which IC50 is on record?
**A.** 1 nM

**Q.** `CC(C)c1ccccc1[C@@H]1CCC[C@@H]1N1CC2(CCN(c3ccc(C(=O)NS(=O)(=O)c4cnc(NC[C@H]5CC[C@](C)(O)CC5)c([N+](=O)[O-])c4)c(Oc4cc5cc[nH]c5nc4Cl)c3)CC2)C1` (relative stereo) [Example A-159, 2-((6-chloro-1H-pyrrolo[2,3-b]pyridin-5-yl)oxy)-N-((6-((((1r,4r)-4-hydroxy-4-methylcyclohexyl)methyl)amino)-_ 5-nitropyridin-3-yl)sulfonyl)-4-(2-((1S,2S or 1R,2R)-2-(2-isopropylphenyl)cyclo-pentyl)-2,7-diazaspiro[3.5]nonan-7-yl) benzamide] was tested. Which IC50 did it give?
**A.** 1 nM
